Experimental data as given in patent US20230218681A1, “BREVUNDIMONAS SP FOR USE IN DISEASE PREVENTION AND TREATMENT” (Zivo Bioscience, Inc., priority 2021, published 2023).

What was measured:
[1] = system: Eimeria acervulina, Eimeria maxima, and Eimeria tenella; test: First study: floor-pen broilers challenged with Eimeria on Day 7, test material in feed, Days 0-28; format: in vivo, broiler chicks
Method: (§1) Chicks were obtained within twelve hours of hatching from fecal contaminated flocks at a commercial hatchery on Day 0 (hatch and placement day). Three-hundred mixed-sex broiler chicks (50:50 sex ratio) were randomly assigned on Day 0 by individual weights to each of several test group pens, each with replicates. Only antibiotic-free birds were sourced, and no coccidiosis vaccine was administered at the hatchery or at any time during the study. Chicks were evaluated upon receipt for signs of disease or other complications that could affect study outcome. Weak birds were humanely sacrificed. Birds were not replaced during the study.
(§2) Following examination, chicks were weighed and allocated to pens for the various treatment groups using a randomized block design. Weight distribution across the treatment groups was assessed prior to feeding by comparing the individual test groups' standard deviations of the mean against that of the control group. Weight distribution across the groups was considered acceptable for this study when differences between control and test groups were within one standard deviation.
(§3) All birds received nutritionally adequate diets as pellets (crumbled pellets for Days 1-14). Birds were fed their respective treatment diets ad libitum from day of hatch to 28 days of age. (The typical average market age is 42 days.) Birds were raised on built-up litter to further mimic stress conditions typically experienced in poultry production.
(§4) All diets were offered ad libitum without restrictions to full-fed consumption, except for an 8-hour fasting period prior to cocci-challenge on Day 7 when all birds assigned to challenge test groups received oocyst-inoculated feed containing a mixture of Eimeria acervulina, Eimeria maxima, and Eimeria tenella. Dietary requirements for protein, lysine, methionine, methionine+cystine, arginine, threonine, tryptophan, total phosphorus, available phosphorus, total calcium, dietary sodium, and dietary choline were met by adjusting the concentrations of corn and soybean meal ingredients, as well as other minor ingredients commonly used in poultry production.
(§5) Pens were monitored for environmental conditions, including temperature, lighting, water, feed, litter condition, and unanticipated house conditions/events. Pens were checked daily for mortality. Examinations were performed on all broilers found dead or moribund. Mortalities were recorded (date and weight) and examined (both internal and external body mass).
Cocci-Challenge—On Day 7, all birds assigned to challenged test groups received oocyst-inoculated feed containing a mixture of Eimeria acervulina, Eimeria maxima, and Eimeria tenella. Adequate feed was precisely weighed and provided to birds to consume at the rate of 100% fill-capacity on average. Prior to the challenge, all birds were starved for eight hours. Inoculated feed was provided to the birds. Following a specific time, all remaining inoculated feed was removed and weighed to assure equal consumption per pen and per bird. The quantity of feed (both placed and withdrawn) was recorded on each pen's feed record.
Differences between groups were evaluated at P<0.05, employing Treatment x Replicate RCB (Randomized Complete Block) design. Particularly and as noted, “Significance (P<0.05)” refers to means for groups not sharing common letter designations in the figures which indicates significant difference (P<0.05) between said groups, as determined by Duncan's New Multiple Range Test (MRT 1955).

[2] = system: Eimeria acervulina, Eimeria maxima, and Eimeria tenella; test: Second study: dried bacterial biomass feed ingredients in cocci-challenged floor-pen broilers on built-up litter, Days 1-28; format: in vivo, broiler chicks
Text: A second study was undertaken to determine the response and efficacy of a dried bacterial biomass feed ingredient incorporated at a specific amount into a commercial-type corn-soybean diet and fed to floor-pen raised broilers. The second study was undertaken over a 28-day period, from Day 1 to Day 28.
The animals were raised under a disease challenge environment (cocci-challenge+built-up litter). For the study and as set forth in FIG. 15, six groups were established, including a first group that received no feed additive ingredient, a second group treated with the anti-coccidia drug Coban® (Elanco), a third group fed a Variovorax-based biomass, a fourth group fed a Brevundimonas-based biomass, a fifth group fed a Sphingomonas-based biomass, and a sixth group fed a 50:50 mixture of a Variovorax and Brevundimonas-based biomass. The feed included corn and soybean meal rations with normal nutritional formulations. No coccidiostat (except for treatment with Coban® provided to the second group) or ABF (antibiotic free products) were administered during the study. No coccidiosis vaccine was administered at the hatchery or during the course of the study.
as §1, with “A total of 1,800 mixed sex broiler chicks were obtained” for “Chicks were obtained”, “placement day). A number of mixed-sex broiler” for “placement day). Three-hundred mixed-sex broiler”, “weights to one of several” for “weights to each of several”
as §2, §3
as §4, with “assigned to the challenge test” for “assigned to challenge test”
as §5
Cocci-Challenge—On Day 7, all birds assigned to the challenge test groups received oocyst-inoculated feed containing a mixture of Eimeria acervulina, Eimeria maxima, and Eimeria tenella. Adequate feed was precisely weighed and provided to birds to consume at the rate of 100% fill-capacity on average. […]

[3] = cocci challenge Day 7, Days 1-28
[4] = mortality-corrected, cocci challenge Day 7, Days 1-28

## CC[C@@]1([C@@H]2O[C@@H]([C@H]3O[C@@](O)(CO)[C@H](C)C[C@@H]3C)C[C@@H]2C)CC[C@H]([C@]2(C)CC[C@]3(C[C@H](O)[C@@H](C)[C@@H]([C@@H](C)[C@@H](OC)[C@H](C)C(=O)O)O3)O2)O1 [Coban, Monensin, USP]
[1]; Day 28
  Lesion Score Ceca Day 28: 0.583
  Lesion Score Ileum Day 28: 0.433
[1]; Johnson and Reid method, Day 28
  Lesion Score Duodenum Day 28: 0.525
[1]; cocci challenge Day 7, Day 28
  Avg Pen Body Weight (g) Day 28: 1430.88 g
  Feed Intake (g/bird/day) Day 28: 89.499 g/bird/day
[1]; [3]
  % Mortality Days 1-28: 1.852%
[1]; [4]
  Feed Conversion Ratio Corrected Days 1-28: 1.527
[2]; Day 28
  Coccidia Incidence Score Small Intestine Day 28: 0.325
  Lesion Score Duodenum Day 28: 0.317
[2]; cocci challenge Day 7, Day 28
  Avg Pen Body Weight (g) Day 28: 1443.182 g
  Feed Intake (g/bird/day) Day 28: 75.493 g/bird/day
[2]; [3]
  % Mortality Days 1-28: 3.750%
[2]; [4]
  Feed Conversion Ratio Corrected Days 1-28: 1.403
